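Cultured in 96-well plates, cells were exposed to test compound for 48 hours across five concentrations. TGI: total growth inhibition.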
What was measured:
Test in all cases: NCI tumour cell line growth inhibition, 48 h
OVCAR-5 ovarian = test system: OVCAR-5 ovarian
HS 578T breast = test system: HS 578T breast
M14 melanoma = test system: M14 melanoma
HCT-116 colon = test system: HCT-116 colon
CAKI-1 renal = test system: CAKI-1 renal
HT29 colon = test system: HT29 colon
DU-145 prostate = test system: DU-145 prostate
LOX IMVI melanoma = test system: LOX IMVI melanoma
MDA-N = test system: MDA-N
SK-OV-3 ovarian = test system: SK-OV-3 ovarian
SNB-19 CNS = test system: SNB-19 CNS
SK-MEL-5 melanoma = test system: SK-MEL-5 melanoma
HCC-2998 colon = test system: HCC-2998 colon
OVCAR-4 ovarian = test system: OVCAR-4 ovarian
SF-295 CNS = test system: SF-295 CNS
HCT-15 colon = test system: HCT-15 colon
MDA-MB-231 breast = test system: MDA-MB-231 breast
RPMI-8226 leukemia = test system: RPMI-8226 leukemia
SK-MEL-28 melanoma = test system: SK-MEL-28 melanoma
NCI/ADR-RES ovarian = test system: NCI/ADR-RES ovarian
MCF7 breast = test system: MCF7 breast
TK-10 renal = test system: TK-10 renal
HOP-92 NSCLC = test system: HOP-92 NSCLC
A549 NSCLC = test system: A549 NSCLC
ACHN renal = test system: ACHN renal
CCRF-CEM leukemia = test system: CCRF-CEM leukemia
COLO 205 colon = test system: COLO 205 colon
T-47D breast = test system: T-47D breast
U251 CNS = test system: U251 CNS
NCI-H226 lung = test system: NCI-H226 lung
786-0 renal = test system: 786-0 renal
K-562 leukemia = test system: K-562 leukemia
MDA-MB-435 = test system: MDA-MB-435
NCI-H460 lung = test system: NCI-H460 lung
KM12 colon = test system: KM12 colon
MOLT-4 leukemia = test system: MOLT-4 leukemia
OVCAR-8 ovarian = test system: OVCAR-8 ovarian
UACC-257 melanoma = test system: UACC-257 melanoma
A498 renal = test system: A498 renal
HOP-62 NSCLC = test system: HOP-62 NSCLC
EKVX NSCLC = test system: EKVX NSCLC
BT-549 breast = test system: BT-549 breast
MALME-3M melanoma = test system: MALME-3M melanoma
RXF 393 renal = test system: RXF 393 renal
NCI-H23 lung = test system: NCI-H23 lung
SW-620 colon = test system: SW-620 colon
UO-31 renal = test system: UO-31 renal
UACC-62 melanoma = test system: UACC-62 melanoma
SF-268 CNS = test system: SF-268 CNS
SN12C renal = test system: SN12C renal
NCI-H522 lung = test system: NCI-H522 lung
HL-60(TB) leukemia = test system: HL-60(TB) leukemia
OVCAR-3 ovarian = test system: OVCAR-3 ovarian
IGROV1 ovarian = test system: IGROV1 ovarian
PC-3 prostate = test system: PC-3 prostate
SF-539 CNS = test system: SF-539 CNS
SK-MEL-2 melanoma = test system: SK-MEL-2 melanoma
SNB-75 CNS = test system: SNB-75 CNS

Clc1ccc(CSC2=NCCN2)cc1Cl
TGI (OVCAR-5 ovarian): 53.3 µM | TGI (HS 578T breast): 53.7 µM | TGI (M14 melanoma): 30.6 µM | TGI (HCT-116 colon): 28.7 µM | TGI (CAKI-1 renal): 23.5 µM | TGI (HT29 colon): 28.4 µM | TGI (DU-145 prostate): 29.7 µM | TGI (LOX IMVI melanoma): 30.1 µM | TGI (MDA-N): 25 µM | TGI (SK-OV-3 ovarian): 49.5 µM | TGI (SNB-19 CNS): > 100 µM | TGI (SK-MEL-5 melanoma): 26 µM | TGI (HCC-2998 colon): 30.1 µM | TGI (OVCAR-4 ovarian): 27 µM | TGI (SF-295 CNS): > 100 µM | TGI (HCT-15 colon): 31.9 µM | TGI (MDA-MB-231 breast): 29.2 µM | TGI (RPMI-8226 leukemia): 36.3 µM | TGI (SK-MEL-28 melanoma): 35.1 µM | TGI (NCI/ADR-RES ovarian): 49.8 µM | TGI (MCF7 breast): 25.2 µM | TGI (TK-10 renal): 31.5 µM | TGI (HOP-92 NSCLC): 13.8 µM | TGI (A549 NSCLC): 98.9 µM | TGI (ACHN renal): 30.9 µM | TGI (CCRF-CEM leukemia): 22.3 µM | TGI (COLO 205 colon): 37.9 µM | TGI (T-47D breast): 27 µM | TGI (U251 CNS): 27 µM | TGI (NCI-H226 lung): 42.3 µM | TGI (786-0 renal): 23.8 µM | TGI (K-562 leukemia): 88.8 µM | TGI (MDA-MB-435): 30.5 µM | TGI (NCI-H460 lung): 37.3 µM | TGI (KM12 colon): 33.5 µM | TGI (MOLT-4 leukemia): 35.9 µM | TGI (OVCAR-8 ovarian): 40 µM | TGI (UACC-257 melanoma): 24.1 µM | TGI (A498 renal): 52.8 µM | TGI (HOP-62 NSCLC): 47.1 µM | TGI (EKVX NSCLC): 24.3 µM | TGI (BT-549 breast): 40.2 µM | TGI (MALME-3M melanoma): 28.6 µM | TGI (RXF 393 renal): 28.4 µM | TGI (NCI-H23 lung): 35.8 µM | TGI (SW-620 colon): 35.4 µM | TGI (UO-31 renal): 23.6 µM | TGI (UACC-62 melanoma): 30.5 µM | TGI (SF-268 CNS): 42.5 µM | TGI (SN12C renal): 35.8 µM | TGI (NCI-H522 lung): 21.5 µM | TGI (HL-60(TB) leukemia): 27.7 µM | TGI (OVCAR-3 ovarian): 30.3 µM | TGI (IGROV1 ovarian): 39.1 µM | TGI (PC-3 prostate): 23.7 µM

CC(C)(C)OC(=O)NCC(c1c[nH]c2ccc(Br)cc12)c1c[nH]c2ccc(Br)cc12
TGI (OVCAR-5 ovarian): 20.2 µM | TGI (HS 578T breast): 47.7 µM | TGI (M14 melanoma): 12.6 µM | TGI (HCT-116 colon): 13.8 µM | TGI (SF-539 CNS): 27.8 µM | TGI (CAKI-1 renal): 24.5 µM | TGI (HT29 colon): 12.2 µM | TGI (DU-145 prostate): 27.7 µM | TGI (LOX IMVI melanoma): 22.7 µM | TGI (MDA-N): 21.2 µM | TGI (SNB-19 CNS): 23.3 µM | TGI (SK-MEL-5 melanoma): 19 µM | TGI (SK-MEL-2 melanoma): 22.3 µM | TGI (HCC-2998 colon): 18 µM | TGI (OVCAR-4 ovarian): 25.9 µM | TGI (SF-295 CNS): 21.9 µM | TGI (HCT-15 colon): 20.8 µM | TGI (MDA-MB-231 breast): 32.1 µM | TGI (RPMI-8226 leukemia): > 100 µM | TGI (SK-MEL-28 melanoma): 34.9 µM | TGI (NCI/ADR-RES ovarian): 23.1 µM | TGI (MCF7 breast): 22 µM | TGI (TK-10 renal): 25.2 µM | TGI (HOP-92 NSCLC): 19.4 µM | TGI (A549 NSCLC): 17.2 µM | TGI (ACHN renal): 18.1 µM | TGI (CCRF-CEM leukemia): 71.1 µM | TGI (COLO 205 colon): 16.2 µM | TGI (T-47D breast): 32.9 µM | TGI (U251 CNS): 19.1 µM | TGI (NCI-H226 lung): 36.7 µM | TGI (786-0 renal): 13.2 µM | TGI (K-562 leukemia): > 100 µM | TGI (MDA-MB-435): 28.7 µM | TGI (KM12 colon): 19.4 µM | TGI (OVCAR-8 ovarian): 45.6 µM | TGI (UACC-257 melanoma): 25.6 µM | TGI (A498 renal): 29.1 µM | TGI (HOP-62 NSCLC): 27.3 µM | TGI (EKVX NSCLC): 15.2 µM | TGI (BT-549 breast): 24.8 µM | TGI (MALME-3M melanoma): 33.3 µM | TGI (RXF 393 renal): 25.7 µM | TGI (NCI-H23 lung): 14.5 µM | TGI (SW-620 colon): 24.9 µM | TGI (UO-31 renal): 19.6 µM | TGI (UACC-62 melanoma): 23.1 µM | TGI (SF-268 CNS): 25.6 µM | TGI (SN12C renal): 18.1 µM | TGI (NCI-H522 lung): 25.2 µM | TGI (HL-60(TB) leukemia): 37.1 µM | TGI (OVCAR-3 ovarian): 17.2 µM | TGI (IGROV1 ovarian): 17.3 µM | TGI (PC-3 prostate): 11.8 µM

O=[N+]([O-])c1cccc(-c2ncnc(-c3cccc([N+](=O)[O-])c3)n2)c1
TGI (OVCAR-5 ovarian): > 100 µM | TGI (HS 578T breast): > 100 µM | TGI (M14 melanoma): > 100 µM | TGI (HCT-116 colon): > 100 µM | TGI (CAKI-1 renal): 93.3 µM | TGI (HT29 colon): > 100 µM | TGI (DU-145 prostate): > 100 µM | TGI (LOX IMVI melanoma): > 100 µM | TGI (MDA-N): > 100 µM | TGI (SK-OV-3 ovarian): > 100 µM | TGI (SK-MEL-5 melanoma): > 100 µM | TGI (SK-MEL-2 melanoma): > 100 µM | TGI (HCC-2998 colon): > 100 µM | TGI (SF-295 CNS): > 100 µM | TGI (MDA-MB-231 breast): 98.2 µM | TGI (RPMI-8226 leukemia): > 100 µM | TGI (SK-MEL-28 melanoma): > 100 µM | TGI (NCI/ADR-RES ovarian): > 100 µM | TGI (MCF7 breast): > 100 µM | TGI (TK-10 renal): > 100 µM | TGI (HOP-92 NSCLC): 57.2 µM | TGI (A549 NSCLC): > 100 µM | TGI (COLO 205 colon): > 100 µM | TGI (T-47D breast): > 100 µM | TGI (U251 CNS): 59.6 µM | TGI (NCI-H226 lung): > 100 µM | TGI (786-0 renal): > 100 µM | TGI (K-562 leukemia): > 100 µM | TGI (MDA-MB-435): > 100 µM | TGI (KM12 colon): > 100 µM | TGI (MOLT-4 leukemia): > 100 µM | TGI (OVCAR-8 ovarian): > 100 µM | TGI (UACC-257 melanoma): > 100 µM | TGI (A498 renal): > 100 µM | TGI (HOP-62 NSCLC): 37.5 µM | TGI (SNB-75 CNS): > 100 µM | TGI (EKVX NSCLC): > 100 µM | TGI (BT-549 breast): > 100 µM | TGI (MALME-3M melanoma): > 100 µM | TGI (RXF 393 renal): 62.8 µM | TGI (NCI-H23 lung): > 100 µM | TGI (SW-620 colon): > 100 µM | TGI (UO-31 renal): > 100 µM | TGI (UACC-62 melanoma): 95.2 µM | TGI (SF-268 CNS): > 100 µM | TGI (SN12C renal): > 100 µM | TGI (NCI-H522 lung): > 100 µM | TGI (HL-60(TB) leukemia): > 100 µM | TGI (OVCAR-3 ovarian): > 100 µM | TGI (IGROV1 ovarian): > 100 µM | TGI (PC-3 prostate): > 100 µM

— PubChem BioAssay (NCI)
